Marks after values point to notes of the source that are not given here.
Experiments:
Format in all cases: in vivo
Plasmopara viticola = assay: Test A: grape downy mildew, grape seedlings sprayed after inoculation, visual disease rating; conditions: 40 ppm test suspension (asterisk); grape seedlings sprayed 24 h after inoculation with Plasmopara viticola; rating 100 = 100% disease control, 0 = no control relative to the controls
Phytophthora infestans [1] = conditions: 40 ppm test suspension (asterisk); tomato seedlings sprayed 17 h after inoculation with Phytophthora infestans; rating 100 = 100% disease control, 0 = no control relative to the controls
Phytophthora infestans [2] = conditions: 40 ppm test suspension (asterisk); tomato seedlings sprayed the day before inoculation with Phytophthora infestans; rating 100 = 100% disease control, 0 = no control relative to the controls

Cc1cc(C(F)(F)F)nn1CC(=O)N1CCC(c2nc(C3=NOC(c4c(F)cccc4F)C3)cs2)CN1 (stereo not drawn) [Compound 1, 1-[4-[4-[5-(2,6-difluorophenyl)-4,5-dihydro-3-isoxazolyl]-2-thiazolyl]tetrahydro-1(2H)-pyridazinyl]-2-[5-methyl-3-(trifluoromethyl)-1H-pyrazol-1-yl]ethanone]
Test A rating (disease control, grape downy mildew) (Plasmopara viticola): 99* %
Test C rating (disease control, tomato late blight) (Phytophthora infestans [1]): 99* %
Test B rating (disease control, tomato late blight) (Phytophthora infestans [2]): 100* %

CC(=O)N1CC(c2nc(C3=NOC(c4c(F)cccc4F)C3)cs2)CCN1C(=O)Cn1nc(C(F)(F)F)cc1C (stereo not drawn) [Compound 2, 1-[2-Acetyl-4-[4-[5-(2,6-difluorophenyl)-4,5-dihydro-3-isoxazolyl]-2-thiazolyl]tetrahydro-1(2H)-pyridazinyl]-2-[5-methyl-3-(trifluoromethyl)-1H-pyrazol-1-yl]ethanone]
Test A rating (disease control, grape downy mildew) (Plasmopara viticola): 89* %
Test C rating (disease control, tomato late blight) (Phytophthora infestans [1]): 98* %
Test B rating (disease control, tomato late blight) (Phytophthora infestans [2]): 100* %

Cc1cc(C(F)(F)F)nn1CC(=O)N1CCC(c2nc(C3=NOC(c4c(F)cccc4F)C3)cs2)CO1 (stereo not drawn) [Compound 3]
Test A rating (disease control, grape downy mildew) (Plasmopara viticola): 100* %
Test C rating (disease control, tomato late blight) (Phytophthora infestans [1]): 99* %
Test B rating (disease control, tomato late blight) (Phytophthora infestans [2]): 100* %

Cc1cc(C(F)(F)F)nn1CC(=O)N1CC2CN(c3nc(C4=NOC(c5c(F)cccc5F)C4)cs3)CC2C1 (stereo not drawn) [Compound 4, 1-[5-[4-[5-(2,6-difluorophenyl)-4,5-dihydro-3-isoxazolyl]-2-thiazolyl]hexahydropyrrolol[3,4-c]pyrrol-2(1H)-yl]-2-[5-methyl-3-(trifluoromethyl)-1H-pyrazol-1-yl]ethanone]
Test A rating (disease control, grape downy mildew) (Plasmopara viticola): 99* %
Test C rating (disease control, tomato late blight) (Phytophthora infestans [1]): 99* %
Test B rating (disease control, tomato late blight) (Phytophthora infestans [2]): 100* %

Source: patent US8835427B2, “Fungicidal heterocyclic compounds” (priority 2010, dated 2014)
